From patent US12673961B2 (Agios Pharmaceuticals, Inc., priority 2022, dated 2026) come the findings set out here.

Structures are written as SMILES.

For this assay, the target named is T1, human PAH with the R408W mutation (Homo sapiens, UniProt P00439, R408W).
T1 construct: expressed in transfected cells
T1 sequence (P00439 1-452 R408W): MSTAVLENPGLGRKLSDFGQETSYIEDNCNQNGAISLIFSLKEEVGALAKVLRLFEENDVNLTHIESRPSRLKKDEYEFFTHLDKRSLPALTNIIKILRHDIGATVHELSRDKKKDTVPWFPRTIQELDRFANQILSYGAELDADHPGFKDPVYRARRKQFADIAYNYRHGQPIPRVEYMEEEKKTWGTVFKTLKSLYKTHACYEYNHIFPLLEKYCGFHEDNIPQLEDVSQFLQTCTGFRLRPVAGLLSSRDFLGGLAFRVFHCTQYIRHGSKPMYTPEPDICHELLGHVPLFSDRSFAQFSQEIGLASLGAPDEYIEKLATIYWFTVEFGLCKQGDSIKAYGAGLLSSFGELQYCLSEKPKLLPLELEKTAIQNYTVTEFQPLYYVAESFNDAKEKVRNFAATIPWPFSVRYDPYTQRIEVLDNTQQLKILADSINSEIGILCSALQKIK
The assay is described as follows: Cell Based Phenylalanine Flux Assay.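 Further: Ten-point dose curve from 2-fold serial dilutions, run in duplicate at 0.5% DMSO final, tracer step used 20 µM sepiapterin and 800 µM labeled phenylalanine.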 The settings on record: A375 cells expressing human R408W PAH; 24 hrs with compound, then sepiapterin and 13C9,15N-Phenylalanine for 4 hours; 13C-Tyrosine by LC-MS; average where tested multiple times; read-out: AC50.
Broadly, the AC50 is the concentration giving half of the maximal activity seen. `FC(F)(F)Oc1cccn2nc([C@H]3c4nc[nH]c4CCN3c3nnc(C(F)(F)F)o3)cc12` [Example 2252, (R)-2-(4-(4-(trifluoromethoxy)pyrazolo[1,5-a]pyridin-2-yl)-1,4,6,7-tetrahydro-5H-imidazo[4,5-c]pyridin-5-yl)-5-(trifluoromethyl)-1,3,4-oxadiazole]: the AC50 lay within 500 to 1000 nM.
As to `CC1(c2nnc(N3CCc4[nH]cnc4[C@@H]3c3cc4c(Cl)cccn4n3)o2)CC1` [Example 2258, (R)-2-(4-(4-chloropyrazolo [1,5-a]pyridin-2-yl)-1,4,6,7-tetrahydro-5H-imidazo [4,5-c]pyridin-5-yl)-5-(1-methylcyclopropyl)-1,3,4-oxadiazole], the AC50 was > 5000 nM.
As for `CC(C)c1cccn2nc([C@@H]3c4nc[nH]c4CCN3c3nnc(-c4cccnc4)o3)cc12` [Example 2261, (S)-2-(4-(4-isopropylpyrazolo [1,5-a]pyridin-2-yl)-1,4,6,7-tetrahydro-5H-imidazo [4,5-c]pyridin-5-yl)-5-(pyridin-3-yl)-1,3,4-oxadiazole], the figure is 500 to 1000 nM.
For `Clc1cccn2nc([C@@H]3c4nc[nH]c4CCN3c3nnc(-c4cccnc4)o3)cc12` [Example 2262, (S)-2-(4-(4-chloropyrazolo [1,5-a]pyridin-2-yl)-1,4,6,7-tetrahydro-5H-imidazo[4,5-c]pyridin-5-yl)-5-(pyridin-3-yl)-1,3,4-oxadiazole], the concentration at half-maximal activity (AC50) lay in the range of 500 to 1000 nM.
As to `Clc1cccn2nc([C@H]3c4nc[nH]c4CCN3c3nnc(-c4cccnc4)o3)cc12` [Example 2263, (R)-2-(4-(4-chloropyrazolo [1,5-a]pyridin-2-yl)-1,4,6,7-tetrahydro-5H-imidazo[4,5-c]pyridin-5-yl)-5-(pyridin-3-yl)-1,3,4-oxadiazole], the AC50 is > 5000 nM.
The result for `Cc1cccn2nc([C@@H]3c4nc[nH]c4CCN3c3nnc(-c4cccnc4F)o3)cc12` [Example 2264, (S)-2-(2-fluoropyridin-3-yl)-5-(4-(4-methylpyrazolo[1,5-a]pyridin-2-yl)-1,4,6,7-tetrahydro-5H-imidazo[4,5-c]pyridin-5-yl)-1,3,4-oxadiazole] reads 500 to 1000 nM; that for `Cc1cccn2nc([C@H]3c4nc[nH]c4CCN3c3nnc(-c4cccnc4F)o3)cc12` [Example 2265, (R)-2-(2-fluoropyridin-3-yl)-5-(4-(4-methylpyrazolo[1,5-a]pyridin-2-yl)-1,4,6,7-tetrahydro-5H-imidazo[4,5-c]pyridin-5-yl)-1,3,4-oxadiazole], > 5000 nM; that for `FC(F)Oc1cccn2nc([C@@H]3c4nc[nH]c4CCN3c3ccc(C(F)(F)F)cn3)cc12` [Example 2272, (S)-4-(4-(difluoromethoxy)pyrazolo[1,5-a]pyridin-2-yl)-5-(5-(trifluoromethyl)pyridin-2-yl)-4,5,6,7-tetrahydro-1H-imidazo[4,5-c]pyridine], < 500 nM.
Regarding `Cc1cccnc1-c1nnc(N2CCc3[nH]cnc3[C@H]2c2cc3c(C(F)F)cccn3n2)o1` [Example 2279, (S)-2-(4-(4-(difluoromethyl)pyrazolo[1,5-a]pyridin-2-yl)-1,4,6,7-tetrahydro-5H-imidazo [4,5-c]pyridin-5-yl)-5-(3-methylpyridin-2-yl)-1,3,4-oxadiazole], the AC50 is < 500 nM.
For the molecule `Cc1cccnc1-c1nnc(N2CCc3[nH]cnc3[C@@H]2c2cc3c(F)cccn3n2)o1` [Example 2281, (R)-2-(4-(4-fluoropyrazolo [1,5-a]pyridin-2-yl)-1,4,6,7-tetrahydro-5H-imidazo [4,5-c]pyridin-5-yl)-5-(3-methylpyridin-2-yl)-1,3,4-oxadiazole], the AC50 is > 5000 nM.
The result for `Cc1cccnc1-c1nnc(N2CCc3[nH]cnc3[C@H]2c2cc3c(Cl)cccn3n2)o1` [Example 2287] reads < 500 nM; that for `Cc1cc(-c2nnc(C(=O)N3CCc4[nH]cnc4[C@H]3c3cc4c(F)cccn4n3)o2)n[nH]1` [Example 2295, (S)-(4-(4-fluoropyrazolo [1,5-a]pyridin-2-yl)-1,4,6,7-tetrahydro-5H-imidazo[4,5-c]pyridin-5-yl)(5-(5-methyl-1H-pyrazol-3-yl)-1,3,4-oxadiazol-2-yl)methanone], 500 to 1000 nM; that for `Cc1c[nH]nc1-c1nnc(C(=O)N2CCc3[nH]cnc3[C@H]2c2cc3c(F)cccn3n2)o1` [Example 2296, (S)-(4-(4-fluoropyrazolo [1,5-a]pyridin-2-yl)-1,4,6,7-tetrahydro-5H-imidazo[4,5-c]pyridin-5-yl)(5-(4-methyl-1H-pyrazol-3-yl)-1,3,4-oxadiazol-2-yl)methanone], < 500 nM.
As for `Cc1c[nH]nc1-c1nnc(C(=O)N2CCc3[nH]cnc3[C@@H]2c2cc3c(F)cccn3n2)o1` [Example 2297, (R)-(4-(4-fluoropyrazolo [1,5-a]pyridin-2-yl)-1,4,6,7-tetrahydro-5H-imidazo[4,5-c]pyridin-5-yl)(5-(4-methyl-1H-pyrazol-3-yl)-1,3,4-oxadiazol-2-yl)methanone], the figure is > 5000 nM.
As to `Cc1cccnc1-c1nnc(N2CCc3[nH]cnc3[C@@H]2c2cc3cccc(Cl)n3n2)o1` [Example 2306, (R)-2-(4-(7-chloropyrazolo [1,5-a]pyridin-2-yl)-1,4,6,7-tetrahydro-5H-imidazo [4,5-c]pyridin-5-yl)-5-(3-methylpyridin-2-yl)-1,3,4-oxadiazole], the AC50 is > 5000 nM.
`Cc1cccnc1-c1nnc(N2CCc3[nH]cnc3[C@H]2c2cc3cccc(Cl)n3n2)o1` [Example 2307, (S)-2-(4-(7-chloropyrazolo [1,5-a]pyridin-2-yl)-1,4,6,7-tetrahydro-5H-imidazo [4,5-c]pyridin-5-yl)-5-(3-methylpyridin-2-yl)-1,3,4-oxadiazole]: the AC50 is < 500 nM.
Take `Cc1cccn2nc([C@H]3c4nc[nH]c4CCN3c3ccccc3)cc12` [Example 2310, (R)-4-(4-methylpyrazolo [1,5-a]pyridin-2-yl)-5-phenyl-4,5,6,7-tetrahydro-1H-imidazo[4,5-c]pyridine]: the AC50 was in the range of 1000 to 5000 nM.
Take `FC(F)Oc1cccn2nc([C@@H]3c4nc[nH]c4CCN3c3cnccn3)cc12` [Example 2319, (S)-4-(4-(difluoromethoxy)pyrazolo[1,5-a]pyridin-2-yl)-5-(pyrazin-2-yl)-4,5,6,7-tetrahydro-1H-imidazo[4,5-c]pyridine]: the AC50 is < 500 nM.
With `CC(C)c1nnc(N2CCc3[nH]cnc3[C@H]2c2cc3c(C(F)F)cccn3n2)o1` [Example 2321, (S)-2-(4-(4-(difluoromethyl)pyrazolo[1,5-a]pyridin-2-yl)-1,4,6,7-tetrahydro-5H-imidazo [4,5-c]pyridin-5-yl)-5-isopropyl-1,3,4-oxadiazole], the AC50 was < 500 nM.
As for `Cc1cccc2cc([C@H]3c4nc[nH]c4CCN3c3nnc(C(C)(F)F)o3)nn12` [Example 2328, (R)-2-(1,1-difluoroethyl)-5-(4-(7-methylpyrazolo[1,5-a]pyridin-2-yl)-1,4,6,7-tetrahydro-5H-imidazo[4,5-c]pyridin-5-yl)-1,3,4-oxadiazole], the figure is > 5000 nM; as for `Cc1ncccc1-c1nnc(N2CCc3[nH]cnc3[C@H]2c2cc3cccc(Cl)n3n2)o1` [Example 2330, (S)-2-(4-(7-chloropyrazolo [1,5-a]pyridin-2-yl)-1,4,6,7-tetrahydro-5H-imidazo [4,5-c]pyridin-5-yl)-5-(2-methylpyridin-3-yl)-1,3,4-oxadiazole], 500 to 1000 nM.
For the molecule `CC(C)c1cccn2nc([C@H]3c4nc[nH]c4CCN3c3nnc(-c4cccnc4F)o3)cc12` [Example 2334, (R)-2-(2-fluoropyridin-3-yl)-5-(4-(4-isopropylpyrazolo[1,5-a]pyridin-2-yl)-1,4,6,7-tetrahydro-5H-imidazo[4,5-c]pyridin-5-yl)-1,3,4-oxadiazole], the half-maximal activity concentration (AC50) is > 5000 nM.
The result for `Cc1cccc(-c2nnc(N3CCc4[nH]cnc4[C@H]3c3cc4ccccn4n3)o2)n1` [Example 2342, (S)-2-(6-methylpyridin-2-yl)-5-(4-(pyrazolo[1,5-a]pyridin-2-yl)-1,4,6,7-tetrahydro-5H-imidazo[4,5-c]pyridin-5-yl)-1,3,4-oxadiazole] reads 1000 to 5000 nM.
For `Cc1cccc(-c2nnc(N3CCc4[nH]cnc4[C@@H]3c3cc4ccccn4n3)o2)n1` [Example 2343, (R)-2-(6-methylpyridin-2-yl)-5-(4-(pyrazolo[1,5-a]pyridin-2-yl)-1,4,6,7-tetrahydro-5H-imidazo[4,5-c]pyridin-5-yl)-1,3,4-oxadiazole], the AC50 is > 5000 nM.
The result for `Cc1cccc(-c2nnc(N3CCc4[nH]cnc4[C@@H]3c3cc4c(C)cccn4n3)o2)n1` [Example 2344] reads > 5000 nM; that for `Cc1cccc(-c2nnc(N3CCc4[nH]cnc4[C@@H]3c3cc4c(C(F)F)cccn4n3)o2)n1` [Example 2346, (R)-2-(4-(4-(difluoromethyl)pyrazolo[1,5-a]pyridin-2-yl)-1,4,6,7-tetrahydro-5H-imidazo[4,5-c]pyridin-5-yl)-5-(6-methylpyridin-2-yl)-1,3,4-oxadiazole], > 5000 nM.
The result for `Cc1cccnc1-c1nnc(N2CCc3[nH]cnc3[C@H]2c2cc3cccc(C(F)F)n3n2)o1` [Example 2352, (S)-2-(4-(7-(difluoromethyl)pyrazolo[1,5-a]pyridin-2-yl)-1,4,6,7-tetrahydro-5H-imidazo [4,5-c]pyridin-5-yl)-5-(3-methylpyridin-2-yl)-1,3,4-oxadiazole] reads 500 to 1000 nM.
